From patent publication US6313153A, “Compositions and methods for treating nephritis and inhibiting TGF -β related conditions using pyridylacrylamide derivatives” (Tsumura & Co., priority 1997, dated 2001)
Structures can show the parent of a compound that is named as a salt.

Legend:
anti-GBM nephritic mice = experiment: anti-GBM nephritic mice: proteinuria, serum cholesterol, blood urea nitrogen and serum creatinine; format: in vivo, BALB/c mice; settings: for Total Evaluation: 3 × (number of + in proteinuria) + (number of + in serum parameter); for Proteinuria 5th day: 5th day from intravenous injection of anti-GBM serum; for Proteinuria 5th day / Proteinuria 10th day / Serum Parameter BUN (blood urea nitrogen) / Serum Parameter S-Ch (serum cholesterol) / Serum Parameter S-Cr (serum creatinine): oral; for Proteinuria 10th day: 10th day from intravenous injection of anti-GBM serum; for Serum Parameter BUN (blood urea nitrogen) / Serum Parameter S-Ch (serum cholesterol) / Serum Parameter S-Cr (serum creatinine): 11th day;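 for Proteinuria 10th day: minus not effective plus trend double p<0.05 triple p<0.01 quadruple p<0.001 improvement vs control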;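 for Proteinuria 5th day: minus not effective plus trend double p<0.05 triple p<0.01 quadruple p<0.001 improvement vs control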;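 for Serum Parameter BUN (blood urea nitrogen): minus not effective plus trend double p<0.05 triple p<0.01 quadruple p<0.001 improvement vs control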;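 for Serum Parameter S-Ch (serum cholesterol): minus not effective plus trend double p<0.05 triple p<0.01 quadruple p<0.001 improvement vs control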
Experimental: BALB/c mice (5 weeks old, purchased from Nippon Charles Liver) were quarantined and adapted for about 1 week before subjecting to experiments. These mice were divided into several groups for the experiments so that average body weights and standard deviations were almost identical in all groups. Mouse anti-GBM (glomerular basement membrane) nephritis was caused by immunizing the mice with rabbit γ-globulin (1 mg) with Freund's complete adjuvant and intravenously injecting rabbit anti-mouse GBM serum on the fifth day from the immunization. Each compound tested was forcedly orally administered via an oral sonde almost simultaneously with the intravenous injection of the anti-GBM serum. On the 5th and 10th days from the intravenous injection, urine was taken by a plastic metabolic cage and proteinuria was measured (Ohtsuka Tonein TP2). On the 11th day, blood was taken by cutting the carotid and serum cholesterol (S--Ch), blood urea nitrogen (BUN) and serum creatinine (S--Cr) were measured by Toshiba TBA-380 autoanalyzer.

total TGF-β1 = experiment: production of total TGF-β1 in glomeruli isolated from nephritic mice (ELISA); format: cell-based, BALB/c male mice; settings: Mus musculus, 10^-6 M, 48 hours, supernatant acid treated, read-out: Inhibition rate (%) of production of total TGF-β1
Experimental: BALB/c male mice were adapted in a feeding chamber for 1 week before subjecting to experiments. Nephritis was induced by subcutaneously injecting an emulsion of rabbit γ-globulin and Freund's complete adjuvant on the back in a dose amount of 1.0 mg per mouse and, after 5 days (on the zeroth day), intravenously injecting rabbit anti-mouse GBM serum in a dose amount of 0.1 ml per mouse. After 1 day from the injection of anti-serum, the glomeruli were isolated through sieves with different sizes and washed twice. Each compound to be tested (10^-6 M) was added while the solvent was added to the control groups. The glomeruli were incubated in RPMI-1640 serum-free medium for 48 hours. The amount of production of active TGF-β1 was determined by measuring the supernatant itself after the incubation for 48 hours in ELSA method. Further, the supernatant was treated with hydrochloric acid and the pH was returned with sodium hydroxide. The total amount of TGF-β1 produced in the supernatant was measured in ELISA method. The protein concentration in the medium was also measured as glomeruli protein concentration. The inhibition rate was calculated by the following equation.
Inhibition rate (%)=100×(value of control group-value of sample)/(value of control group)

Row | SMILES | Total Evaluation (anti-GBM nephritic mice) | Proteinuria 5th day (anti-GBM nephritic mice) | Proteinuria 10th day (anti-GBM nephritic mice) | Serum Parameter BUN (blood urea nitrogen) (anti-GBM nephritic mice) | Serum Parameter S-Ch (serum cholesterol) (anti-GBM nephritic mice) | Serum Parameter S-Cr (serum creatinine) (anti-GBM nephritic mice) | inhibition at 1 µM (total TGF-β1) [%]
1 | COC(=O)c1cncc(/C=C/C(=O)N(C)CCc2ccc(OC)c(OC)c2)c1 [Compound 33] | 7 | ++ | ++ | - | ++ | + | 49.8
2 | COc1ccc(CCN(C)C(=O)/C=C/c2cccnc2)cc1 [Compound 49] | 7 | - | + | + | + | ++ | 59
3 | COc1ccc(CCN(C)C(=O)/C=C/c2cncc(Cl)c2)cc1OC [Compound 29] | 16 | ++ | ++ | + | ++ | + | 32.6
4 | CCN(CCc1ccc(OC)c(OC)c1)C(=O)/C=C/c1cccnc1 [Compound 12] | 8 | - | + | + | + | +++ | 37.8
5 | COc1ccc(CCN(C)C(=S)/C=C/c2cccnc2)cc1OC [Compound 135, (E)-N-(3,4-dimethoxyphenethyl)-N-methyl-3-(3-pyridyl)-2-propenoic acid thioamide hydrochloride] | 6 | - | + | + | + | + | 47.1
6 | O=C(O)COc1cccc(CCNC(=S)/C=C/c2cccnc2)c1 [Compound 151] |  |  |  |  |  |  | 19.1
7 | O=C(/C=C/c1cccnc1)NCCc1cccc(OCC(=O)NO)c1 [Compound 120] |  |  |  |  |  |  | 56.9
8 | COc1ccc(CCNC(=O)/C=C/c2cccnc2)cc1OC [Compound 55] | 17 | + | +++ | ++ | +++ | - | 75.7
9 | COc1ccc(CCN(C)C(=O)/C=C/c2ccncc2)cc1OC [Compound 154] |  |  |  |  |  |  | 53.4
10 | CCOC(=O)COc1ccc(CN(C)C(=O)/C=C/c2cccnc2)cc1 [Compound 95] | 9 | + | + | ++ | + | - | 
11 | CN(CCc1ccc(O)cc1)C(=O)/C=C/c1cccnc1 [Compound 87] | 19 | +++ | + | +++ | ++ | ++ | 
12 | COc1ccc(CCN(C)C(=O)/C=C/c2ccccn2)cc1OC [Compound 153] |  |  |  |  |  |  | 31
13 | O=C(/C=C/c1cccnc1)NCCc1ccccc1O [Compound 38] | 19 | ++ | +++ | + | ++ | + | 
14 | COc1ccc(C(=O)CN(C)C(=S)/C=C/c2cccnc2)cc1OC [Compound 165, (E)-N-[2-(3,4-dimethoxyphenyl)-2-oxoethyl]-N-methyl-3-(3-pyridyl)-2-propenoic acid thioamide] | 22 | +++ | +++ | + | +++ | - | 
15 | O=C(O)COc1ccc(CCNC(=O)/C=C/c2cccnc2)cc1 [Compound 149] |  |  |  |  |  |  | 35.9
16 | COc1ccc(CN(C)C(=O)/C=C/c2cccnc2)cc1OC [Compound 20] | 13 | ++ | + | + | + | ++ | 
17 | NC(=O)COc1cccc(CCNC(=O)/C=C/c2cccnc2)c1 [Compound 115] | 10 | - | + | ++ | ++ | +++ | 
18 | COc1cc(C(O)CN(C)C(=O)/C=C/c2cccnc2)ccc1O (centres unmarked) [Compound 158, (E)-N-[2-hydroxy-2-(3-methoxy-4-hydroxyphenyl)ethyl]-N-methyl-3-(3-pyridyl)-2-propenoic acid amide] | 7 | + | + | - | + | - | 
19 | COc1ccc(CCN(C)C(=O)/C(C#N)=C/c2cccnc2)cc1OC [Compound 2] | 13 | + | +++ | - | - | + | 56.7
20 | O=C(/C=C/c1cccnc1)NCCc1ccccc1O [Compound 70, (E)-N-(2-hydroxyphenethyl)-3-(3-pyridyl)-2-propenoic acid amide] | 22 | ++ | +++ | ++ | +++ | ++ | 
21 | Cl.N#C/C(=C\c1cccnc1)C(=O)NCCc1ccc(O)cc1 [Compound 6, (E)-2-cyano-N-(4-hydroxyphenethyl)-3-(3-pyridyl)-2-propenoic acid amide hydrochloride] | 16 | ++ | +++ | - | + | - | 
22 | COc1ccc(CCN(C)C(=O)/C=C/c2cccnc2)cc1OC [Compound 140] | 14 | + | ++ | ++ | ++ | + | 
23 | COc1ccc(CCN(C)C(=O)/C=C/c2cccnc2)cc1O [Compound 51] |  |  |  |  |  |  | 56.8
24 | O=C(/C=C/c1cccnc1)NCCc1ccc(O)c(O)c1 [Compound 91] | 14 | + | +++ | - | ++ | - | 
25 | COc1cccc(CCN(C)C(=O)/C=C/c2cccnc2)c1OC [Compound 13] | 13 | + | +++ | + | - | + | 
26 | CN(CCc1ccc(Cl)c(Cl)c1)C(=O)/C=C/c1cccnc1 [Compound 25] | 13 | + | ++ | + | +++ | + | 
27 | COc1ccc(CCN(C)C(=O)/C(C)=C/c2cccnc2)cc1OC [Compound 62] | 14 | - | +++ | ++ | +++ | + | 31.9
28 | CN(CCc1ccc(O)c(O)c1)C(=O)/C=C/c1cccnc1 [Compound 85, (E)-N-(3,4-dihydroxyphenethyl)-N-methyl-3-(3-pyridyl)-2-propenoic acid amide] | 21 | +++ | +++ | + | ++ | - | 
